Data: publication PMC8286599 (Gut Pathogens, 2021)
Read-outs that look alike come from different tables or passages of the source.

Legend:
[1] = system: MDR-EAEC strains; experiment: MIC and MBC by broth microdilution with resazurin; assay type: cell-based, enteroaggregative Escherichia coli; conditions: infant diarrhoea isolate
From the text: (§1) The characterised MDR field strains of EAEC (E1; E2; E3), S. Enteritidis (S1; S2; S3), and S. Typhimurium (ST1; ST2; ST3) maintained in the laboratory repository of Meat Safety Laboratory of ICAR-National Research Centre on Meat, Hyderabad re-validated using PCR assays were used to evaluate the in vitro antibacterial efficacy of phytochemicals. E. coli ATCC 25922 was used as the quality control strain.
(§2) The antimicrobial efficacy of identified phytochemicals against multi-drug resistant EAEC and NTS strains was determined by estimating the minimum inhibitory concentration (MIC) and minimum bactericidal concentrations (MBC).
(§3) Subsequent to the incubation period, resazurin dye (0.015 %) was added to all the wells to determine the dye reduction (pink) and thereby the bacterial inhibition.

[2] = system: MDR-S. Enteritidis strains; experiment: MIC and MBC by broth microdilution with resazurin; assay type: cell-based, Salmonella Enteritidis; conditions: poultry droppings isolate
From the text: as §1, §2, §3

[3] = system: MDR-S. Typhimurium strains; experiment: MIC and MBC by broth microdilution with resazurin; assay type: cell-based, Salmonella Typhimurium; conditions: poultry droppings isolate
From the text: as §1, §2, §3

[4] = Haemolytic assay; assay type: cell-based; conditions: read-out: Haemolysis; for hemolysis at 0.5 X MIC: 0.50X MIC
Method: (§4) The haemolytic assay of the individual phytochemical was performed by measuring the release of haemoglobin from sheep and human ‘O’ erythrocytes at 540 nm. The percentage of haemolysis was calculated as (Asample – APBS)/ (ATriton−X – APBS) ×100, in which Asample is the absorbance of phytochemical treatment, APBS is the absorbance of untreated control with PBS, and ATriton−X is the absorbance of lysed cells treated with Triton X-100 measured at 540 nm.

[5] = Haemolytic assay, text summary; assay type: cell-based; conditions: sheep and human, sheep and human 'O' erythrocytes; read-out: Haemolysis
Method: as §4

[6] = system: MDR-EAEC strains; experiment: Stability assay, pH (MIC)
From the text: (§5) To explore the utility of phytochemicals as therapeutic molecules and their stability, individual phytochemicals were exposed to cationic salts, and different pH levels followed by analysing their MIC and MBC values against test strains as described earlier.
(§6) Subsequent to exposure to varied conditions, the antimicrobial activity of the phytochemicals was estimated by determining their MIC and MBC values against all the selected MDR strains of EAEC, S. Enteritidis, and S. Typhimurium as described earlier.

[7] = system: MDR-S. Enteritidis strains; experiment: Stability assay, pH (MIC)
From the text: as §5, §6

[8] = system: MDR-S. Typhimurium strains; experiment: Stability assay, pH (MIC)
From the text: as §5, §6

[9] = system: MDR-EAEC strains; experiment: Stability assay, cationic salts (MIC)
From the text: as §5, §6

[10] = system: MDR-S. Enteritidis strains; experiment: Stability assay, cationic salts (MIC)
From the text: as §5, §6

[11] = system: MDR-S. Typhimurium strains; experiment: Stability assay, cationic salts (MIC)
From the text: as §5, §6

[12] = human 'O' erythrocytes, Human RBCs

Cc1ccc(C(C)C)cc1O [Carvacrol, carvacrol]
0.5 µl/ml: MIC at given pH ([6]; pH 4, strain E1) | MIC at given pH ([6]; pH 4, strain E3) | MIC at given pH ([6]; pH 6, strain E1) | MIC at given pH ([6]; pH 6, strain E3) | MIC at given pH ([6]; pH 8, strain E1) | MIC at given pH ([6]; pH 8, strain E3) | MIC at given pH ([7]; pH 4, strain S1) | MIC at given pH ([7]; pH 4, strain S2) | MIC at given pH ([7]; pH 4, strain S3) | MIC at given pH ([7]; pH 6, strain S1) | MIC at given pH ([7]; pH 6, strain S2) | MIC at given pH ([7]; pH 6, strain S3) | MIC at given pH ([7]; pH 8, strain S1) | MIC at given pH ([7]; pH 8, strain S2) | MIC at given pH ([7]; pH 8, strain S3) | MIC at given pH ([8]; pH 4, strain ST1) | MIC at given pH ([8]; pH 4, strain ST2) | MIC at given pH ([8]; pH 6, strain ST1) | MIC with cationic salt ([9]; 2 mM MgCl2, strain E1) | MIC with cationic salt ([10]; 2 mM MgCl2, strain S1) | MIC with cationic salt ([10]; 2 mM MgCl2, strain S2) | MIC with cationic salt ([10]; 2 mM MgCl2, strain S3) | MIC with cationic salt ([10]; 150 mM NaCl, strain S1) | MIC with cationic salt ([10]; 150 mM NaCl, strain S3) | MIC with cationic salt ([11]; 2 mM MgCl2, strain ST1) | MIC with cationic salt ([11]; 2 mM MgCl2, strain ST2) | MIC with cationic salt ([11]; 2 mM MgCl2, strain ST3) | MIC with cationic salt ([11]; 150 mM NaCl, strain ST1) | MIC with cationic salt ([11]; 150 mM NaCl, strain ST2) | MIC with cationic salt ([11]; 150 mM NaCl, strain ST3)
92.7%: hemolysis at 8 X MIC [4, 12]
1.0 µl/ml: MBC ([1]; EAEC (E1)) | MIC at given pH ([6]; pH 4, strain E2) | MIC at given pH ([6]; pH 6, strain E2) | MIC at given pH ([6]; pH 8, strain E2) | MIC at given pH ([8]; pH 4, strain ST3) | MIC at given pH ([8]; pH 6, strain ST2) | MIC at given pH ([8]; pH 6, strain ST3) | MIC at given pH ([8]; pH 8, strain ST2) | MIC at given pH ([8]; pH 8, strain ST3) | MIC with cationic salt ([9]; 2 mM MgCl2, strain E2) | MIC with cationic salt ([9]; 2 mM MgCl2, strain E3) | MIC with cationic salt ([9]; 150 mM NaCl, strain E1) | MIC with cationic salt ([9]; 150 mM NaCl, strain E2) | MIC with cationic salt ([9]; 150 mM NaCl, strain E3) | MIC with cationic salt ([10]; 150 mM NaCl, strain S2)
86%: hemolysis at 8 X MIC ([4]; sheep erythrocytes, Sheep RBCs)
1.25%: hemolysis at 1 X MIC ([4]; sheep erythrocytes, Sheep RBCs)
2.66%: hemolysis at 0.25 X MIC [4, 12]
0.25 µl/ml: MIC ([1]; EAEC (E1)) | MIC ([1]; EAEC (E3)) | MIC ([2]; S. Enteritidis (S2)) | MIC ([2]; S. Enteritidis (S3))
0.773%: hemolysis at 0.5 X MIC ([4]; sheep erythrocytes, Sheep RBCs)
0%: hemolysis at 0.25 X MIC ([4]; sheep erythrocytes, Sheep RBCs)
81.8%: hemolysis at 4 X MIC ([4]; sheep erythrocytes, Sheep RBCs)
2.0 µl/ml: MIC at given pH ([8]; pH 8, strain ST1)
4.88%: hemolysis at 0.5 X MIC [4, 12]
57 to 82%: hemolysis [5]
11.2%: hemolysis at 1 X MIC [4, 12]
two- to four-fold increase: Change of MIC values at varied pH ([6]; pH 4.0 to 8.0, MDR-EAEC strains) | Change of MIC values with cationic salts ([9]; 150 mM NaCl and 2 mM MgCl2, MDR-EAEC strains)
82.1%: hemolysis at 4 X MIC [4, 12]
0.50 µl/ml: MBC ([1]; EAEC (E2)) | MIC ([1]; EAEC (E2)) | MBC ([1]; EAEC (E3)) | MBC ([2]; S. Enteritidis (S1)) | MBC ([2]; S. Enteritidis (S2)) | MBC ([2]; S. Enteritidis (S3)) | MBC ([3]; S. Typhimurium (ST1)) | MBC ([3]; S. Typhimurium (ST2)) | MBC ([3]; S. Typhimurium (ST3))
57.2%: hemolysis at 2 X MIC [4, 12]
75.7%: hemolysis at 2 X MIC ([4]; sheep erythrocytes, Sheep RBCs)
0.12 µl/ml: MIC ([2]; S. Enteritidis (S1)) | MIC ([3]; S. Typhimurium (ST1)) | MIC ([3]; S. Typhimurium (ST2)) | MIC ([3]; S. Typhimurium (ST3))
